Structures can show the parent of a compound that is named as a salt.
What was measured:
[1] = Tabletability (tablet tensile strength as a function of upper punch compression pressure); format: physicochemical; details: for Tablet Tensile Strength: immediate release formulation, Form A
Description: As used herein, the term “tabletability” refers to the capacity of a powdered material to be transformed into a tablet of specified strength under the effect of compaction pressure. Tabletability is the tensile strength as a function of compression force and describes the effectiveness of the applied pressure in increasing the tensile strength of the tablet.

[2] = Thermal gravimetric analysis (TGA); format: physicochemical; details: heating up to 175° C.; FIG. 4
Procedure: The TGA analysis was conducted on a […]. The thermal gravimetric curve was obtained on a sample heated at 10° C. per minute in a open cup under a nitrogen flow.

Compound: Cc1nc2ccccc2c(-c2ccc3c4c(ccnc24)CCO3)c1[C@H](OC(C)(C)C)C(=O)O (atropisomer, axis not shown) [hemi-succinate salt of Compound (I), (2S)-2-tert-butoxy-2-(4-(2,3-dihydropyrano[4,3,2-de]quinolin-7-yl)-2-methylquinolin-3-yl)acetic acid]
- Tablet Tensile Strength ([1]; Upper Punch Compression Pressure 98 MPa): 2.17 MPa
- Tablet Tensile Strength ([1]; Upper Punch Compression Pressure 140 MPa): 2.94 MPa
- Tablet Tensile Strength ([1]; Upper Punch Compression Pressure 197 MPa): 3.18 MPa
- Tablet Tensile Strength ([1]; Upper Punch Compression Pressure 253 MPa): 3.41 MPa
- tabletability ([1]; result in words, FIG. 5): improved tabletability
- weight loss during heating [2]: minimal weight loss
